Experimental data from patent publication US20240308973A1, “PHOSPHODIESTERASE 3 (PDE3) INHIBITORS” (Zoetis Services LLC, priority 2023, published 2024).

What was measured:
[1] = molecular target: dog PDE3A recombinant enzyme (Canis lupus familiaris, UniProt A0A8I3NYE0); test: cPDE3A assay (fluorescent polarization); format: biochemical; settings: canine PDE3A, read-out: cPDE3 Inhibition (IC50)
Description: cPDE3A Assay (Fluorescent Polarization)
The canine PDE3A assay kit was purchased from BPS Bioscience (San Diego, CA) which included dog PDE3A recombinant enzyme, FAM-cyclic-3′,5′-AMP (20 μM), PDE3 assay buffer, binding agent, binding agent diluent and microtiter 96-well plates. Compounds were initially dissolved in DMSO. The stock concentration was subsequently diluted in cPDE assay buffer (10× stock) and serially diluted to give a concentration response curve starting at 10 μM (≥7 total concentrations). Following the serial dilution, compound solution (0.1% final DMSO) was transferred to an assay plate (96-well) where the remaining canine PDE3A assay reagents were dispensed according to the BPS Bioscience® protocol (catalog #79735) procedure using a final concentration of 5 pg/μL of enzyme. Each compound was evaluated for the inhibition of the canine PDE3A enzyme activity using the measurement of fluorescent polarization changes. The 50% inhibition concentration (IC50) nM was calculated and reported.

[2] = Dog plasma half-life after oral dose; format: in vivo; settings: Beagle dogs, oral dose 0.1 mg/kg, plasma over 72 hours, read-out: t½ (hrs), Dog Plasma Compound Half-life (converted)
Description: Lastly, plasma half-life was assessed for a number of compounds in dogs. Beagle dogs were given an oral dose (0.1 mg/kg) of the respective compound accounting for a dose amount of about 1 mg/dog. Pimopendan was administered at a 0.3 mg/kg dose.

Sequence of dog PDE3A recombinant enzyme (A0A8I3NYE0 1-1135): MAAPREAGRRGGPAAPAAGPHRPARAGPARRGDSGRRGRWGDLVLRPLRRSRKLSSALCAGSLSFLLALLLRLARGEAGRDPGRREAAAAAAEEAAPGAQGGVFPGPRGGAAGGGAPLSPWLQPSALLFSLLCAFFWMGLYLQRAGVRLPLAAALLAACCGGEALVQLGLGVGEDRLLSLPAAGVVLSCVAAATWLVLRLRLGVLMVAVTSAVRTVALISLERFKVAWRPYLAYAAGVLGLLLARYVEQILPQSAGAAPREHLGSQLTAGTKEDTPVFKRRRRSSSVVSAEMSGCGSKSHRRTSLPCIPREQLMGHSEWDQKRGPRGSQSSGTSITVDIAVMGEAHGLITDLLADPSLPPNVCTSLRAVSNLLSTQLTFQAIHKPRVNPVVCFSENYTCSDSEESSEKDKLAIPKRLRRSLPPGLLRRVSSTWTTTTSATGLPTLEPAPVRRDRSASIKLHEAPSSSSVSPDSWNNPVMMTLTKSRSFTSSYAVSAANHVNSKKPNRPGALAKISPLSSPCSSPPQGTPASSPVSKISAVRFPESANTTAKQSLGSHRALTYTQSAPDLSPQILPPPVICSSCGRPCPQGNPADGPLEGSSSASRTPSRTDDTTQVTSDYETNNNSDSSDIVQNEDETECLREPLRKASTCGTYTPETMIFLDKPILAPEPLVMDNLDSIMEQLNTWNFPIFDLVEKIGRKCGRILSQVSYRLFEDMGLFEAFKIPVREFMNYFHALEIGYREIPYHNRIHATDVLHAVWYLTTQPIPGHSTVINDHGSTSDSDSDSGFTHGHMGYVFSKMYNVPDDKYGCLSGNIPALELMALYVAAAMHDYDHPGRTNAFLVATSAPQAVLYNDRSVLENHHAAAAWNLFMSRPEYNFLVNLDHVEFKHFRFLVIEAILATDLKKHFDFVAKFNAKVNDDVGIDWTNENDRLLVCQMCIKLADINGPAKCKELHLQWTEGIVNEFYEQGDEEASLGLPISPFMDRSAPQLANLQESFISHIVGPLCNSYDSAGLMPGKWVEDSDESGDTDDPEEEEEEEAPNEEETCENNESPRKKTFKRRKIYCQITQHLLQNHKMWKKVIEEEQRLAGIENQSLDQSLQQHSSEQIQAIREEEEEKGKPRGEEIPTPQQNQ

Structure (SMILES) | IC50 [1] [nM] | half-life [2] [h]
CC1SC(=O)NN=C1c1cc(Cl)c2c(c1)C(C)(C)C(=O)N2 (centres unmarked) [Example #75, 5-(7-chloro-3,3-dimethyl-2-oxoindolin-5-yl)-6-methyl-3,6-dihydro-2H-1,3,4-thiadiazin-2-one] | 9.7 | 50
CC1CC(=O)NN=C1c1cc(Cl)c2c(c1)C(C)(C)C(=O)N2 (racemic) [Example #24, 7-chloro-3,3-dimethyl-5-(4-methyl-6-oxo-1,4,5,6-tetrahydropyridazin-3-yl)indolin-2-one] | 5.4 | 50
CC1(C)C(=O)Nc2c(Cl)cc(-c3cncnc3)cc21 [Example #86, 7-chloro-3,3-dimethyl-5-(pyrimidin-5-yl)indolin-2-one] | 115 | 96
CC1SC(=O)NN=C1c1cc(Br)c2c(c1)C(C)(C)C(=O)N2 (centres unmarked) [Example #76, 5-(7-bromo-3,3-dimethyl-2-oxoindolin-5-yl)-6-methyl-3,6-dihydro-2H-1,3,4-thiadiazin-2-one] | 15.2 | 40
CC1CC(=O)NN=C1c1cc2c(c(-c3cccc(F)c3)c1)NC(=O)CC2 (centres unmarked) [Example #12, 8-(3-fluorophenyl)-6-(4-methyl-6-oxo-1,4,5,6-tetrahydropyridazin-3-yl)-3,4-dihydroquinolin-2 (1H)-one] | 90.9 | 10.4
CC1(C)C(=O)Nc2c(Cl)cc(-c3ccc(=O)[nH]n3)cc21 [Example #25, 7-chloro-3,3-dimethyl-5-(6-oxo-1,6-dihydropyridazin-3-yl)indolin-2-one] | 15.7 | 50

Continued by falling IC50 [1], values first:

IC50 [1] [nM] | half-life [2] [h] | Structure (SMILES)
90.4 | 5.4 | CC1SC(=O)NN=C1c1cc2c(c(-c3ccc(Cl)cc3)c1)NC(=O)C2 (centres unmarked) [Example #71, 5-(7-(4-chlorophenyl)-2-oxoindolin-5-yl)-6-methyl-3,6-dihydro-2H-1,3,4-thiadiazin-2-one]
28.2 | 3.9 | O=C1CCCc2cc(C3=NNC(=O)SC3)ccc2N1 [Example #72, 5-(2-oxo-2,3,4,5-tetrahydro-1H-benzo[b]azepin-7-yl)-3,6-dihydro-2H-1,3,4-thiadiazin-2-one]
22.2 | 5.2 | CC1(C)C(=O)Nc2c(F)cc(C3=NNC(=O)SC3)cc21 [Example #59, 5-(7-fluoro-3,3-dimethyl-2-oxoindolin-5-yl)-3,6-dihydro-2H-1,3,4-thiadiazin-2-one]
3.6 | 15 | CC1SC(=O)NN=C1c1cc(Cl)c2[nH]c(=O)sc2c1 (centres unmarked) [Example #56, 4-chloro-6-(6-methyl-2-oxo-3,6-dihydro-2H-1,3,4-thiadiazin-5-yl)benzo[d]thiazol-2 (3H)-one]
